What was measured:
MAT2A homodimer = molecular target: T1, MAT2A homodimer (Homo sapiens, UniProt P31153); experiment: MAT2A biochemical assay (phosphate release, PiColorLock Gold); conditions: recombinant MAT2A homodimer, 60 min pre-incubation, 25° C.; read-out: Enzyme Inhibition
T1 construct: inferred from Ni sepharose purification and imidazole elution; made in house; host or cells: SF9 insect cells, recombinant baculovirus (Bac to Bac, pFASTBAC1)
Method: Mat2A protein was expressed by recombinant baculovirus in SF9 infected cells using the Bac to Bac system cloned into the pFASTBAC1 vector (Invitrogen, Carlsbad, CA). Recombinant MAT2A was isolated from the cell lysate of 150 g of infected cells using HP Ni sepharose column chromatography. Recombinant MAT2A homodimer was eluted with 250 and 500 mM imidazole, and fractions containing MAT2A were identified by sodium dodecyl sulfate polyacrylamide gel electrophoresis and pooled.
For determination of the inhibitory potency of compounds against the MAT2A homodimer, protein was diluted to 4 μg/mL in assay buffer (50 mM Tris, pH 8.0, 50 mM KCl, 15 mM MgCl2, 0.3 mM EDTA, 0.005% [w/v] bovine serum albumin [BSA]). Test compound was prepared in 100% dimethyl sulfoxide (DMSO) at 50× the desired final concentration. A 1 μL volume of compound dilution was added to 40 μL of enzyme dilution and the mixture was allowed to equilibrate for 60 minutes at 25° C. The enzymatic assay was initiated by the addition of 10 μL of substrate mix (500 μM ATP, pH 7.0, 400 μM L-methionine in 1× assay buffer), and the mixture was incubated for a further 60 minutes at 25° C. The reaction was halted and the liberated phosphate released by the enzyme in stoichiometric amounts by the production of S-adenosyl methionine (SAM) was measured using the PiColorLock Gold kit (Innova Biosciences, UK). Absolute product amounts were determined by comparison to a standard curve of potassium phosphate buffer, pH 8.0.

[1] = test system: MAT2A activity (SAM) in HCT116 cells with deleted MTAP gene; experiment: Cellular assay of target engagement (SAM) by LC-MS/MS; format: cell-based; conditions: Homo sapiens, HCT-116; HCT116 MTAP −/−, 72 hrs; read-out: Cell 72 h SAM Inhibition (MTAP −/−)
Method: Measurement of MAT2A activity in cells was made by direct quantitation of the abundance of the product of its enzymatic activity, SAM. Cancer cells were treated with candidate MAT2A inhibitors for a suitable incubation period, and the cells were then lysed using a reagent which quenched any further enzyme activity. Soluble metabolites including SAM were collected and SAM itself was directly measured from the lysate using quantitative LC-MS/MS.
A typical assay was performed using an HCT116 human colon carcinoma cell line which was genetically engineered to delete the MTAP gene (commercially available from Horizon Discovery). This cell line was utilized because it was determined that loss of the MTAP gene predicts sensitivity to MAT2A inhibitors. Cells were plated in 96-well dishes at appropriate cell density. Following 24 hours, cells were then treated with the candidate MAT2A inhibitor. Prior to addition to cells, the compound was first serially diluted in 100% DMSO, typically as a 3-fold serial dilution starting at 500× top dose with 10 dose points including DMSO only control. Compound was then transferred to a working stock plate in cell culture media by adding 5 μL of compound in DMSO to 495 μL of cell culture media. This working stock was then added to cells via a further 5-fold dilution, by adding 25 μL of working stock to 100 μL of cells in culture media. Following compound addition, cells were incubated at 37° C./5% CO2 for 72 hrs.
To quantitate SAM levels following compound treatment, cells were gently washed once in ammonium carbonate buffer (75 mM at pH 7.4), placed on dry ice, and lysed with metabolite extraction buffer (80% cold methanol and 20% water (v/v) with acetic acid at 1M final concentration with 200 ng/mL deuterated d3-SAM as internal control). Following centrifugation at 4° C. at 3,200 rpm for 30 minutes, the supernatant was collected and stored at −80° C. until analysis by Liquid Chromatography with tandem Mass Spectrometry (LC-MS/MS). LC-MS/MS analysis was performed using an API6500 Mass Spectrometer (Sciex, Framingham, MA, USA) operating in positive ion spray mode and equipped with a Waters UPLC Acquity (Waters, Milford, MA, USA) BEH Amide column. Multiple Reaction Monitoring data was acquired for SAM and the d3-SAM standard, using a mass transition pair at m/z 399.2→250.1 and 402.2→250.1, respectively. In a typical LC-MS/MS analysis, the initial flow rate was 0.5 ml/min of 25% mobile phase A (acetonitrile and water at 5:95 (v/v) with 1% formic acid and 10 mM ammonium acetate) and 75% mobile phase B (acetonitrile and water at 95:5 (v/v) with 1% formic acid and 10 mM ammonium acetate), 0.2-0.5 minutes with 75%-35% mobile phase B, 25%-65% mobile phase A, at 0.5 min 65% mobile phase A and 35% mobile phase B, 1.0-1.1 minutes with 35%-75% mobile phase B, 65%-25% mobile phase A, at 1.1 min 25% mobile phase A and 75% mobile phase B with a total run time of 1.5 minutes.

HCT116 MTAP−/− = experiment: Inhibition of cellular proliferation (Cell Titer Glo), HCT116 MTAP-/-; format: cell-based; conditions: Homo sapiens, HCT-116, 96 h, 4 days, read-out: 4 Day Relative Growth Inhibition (MTAP −/−)
Method: (§1) Test compound impact on cancer cell growth was assessed by treating cancer cells with compound for 4 days and then measuring proliferation using an ATP-based cell proliferation readout (Cell Titer Glo, Promega Corporation).
(§2) In a typical assay an isogenic pair of HCT116 human colon carcinoma cell lines which vary only in MTAP deletion status (HCT116 MTAP+/+ and HCT116 MTAP−/−) were plated in 96-well dishes at appropriate cell density. Following 24 hours, cells were then treated with the candidate MAT2A inhibitor. Prior to addition to cells, the compound was first serially diluted in 100% DMSO, typically as a 3-fold serial dilution starting at 500× top dose with 10 dose points including DMSO only control. Compound was then transferred to a working stock plate in cell culture media by adding 5 μL of compound in DMSO to 495 μL of cell culture media. This working stock was then added to cells via a further 5-fold dilution, by adding 25 μL of working stock to 100 μL of cells in culture media. Following compound addition, cells were incubated at 37° C./5% CO2 for 4 days.
(§3) To measure inhibition of cellular proliferation, cells were allowed to equilibrate to room temperature for 30 minutes, and were then treated with 125 μL of Cell Titer Glo reagent. The plate was then covered with aluminum foil and shaken for 15 minutes to ensure complete mixing and full cell lysis. Luminescent signal was then measured using a plate-based luminometer Veritas version 1.9.2 using ATP standard curve to confirm assay reproducibility from run to run. This luminescence measure was converted to a proliferation index by subtracting from each data point the ATP luminescence signal measured from a bank (no cells) well and dividing by the ATP luminescence signal measured in 0.2% DMSO control well adjusted for signal in blank well. Compound activity was then represented as a percentage change in proliferation relative to a within-plate DMSO control against log 10 of compound concentration in molar (M) units.

HCT116 MTAP+/+ = experiment: Inhibition of cellular proliferation (Cell Titer Glo), HCT116 MTAP+/+; format: cell-based; conditions: Homo sapiens, HCT-116, 96 h, 4 days, read-out: 4 Day Relative Growth Inhibition (MTAP +/+)
Method: as §1, §2, §3

T1 sequence (P31153 whole entry): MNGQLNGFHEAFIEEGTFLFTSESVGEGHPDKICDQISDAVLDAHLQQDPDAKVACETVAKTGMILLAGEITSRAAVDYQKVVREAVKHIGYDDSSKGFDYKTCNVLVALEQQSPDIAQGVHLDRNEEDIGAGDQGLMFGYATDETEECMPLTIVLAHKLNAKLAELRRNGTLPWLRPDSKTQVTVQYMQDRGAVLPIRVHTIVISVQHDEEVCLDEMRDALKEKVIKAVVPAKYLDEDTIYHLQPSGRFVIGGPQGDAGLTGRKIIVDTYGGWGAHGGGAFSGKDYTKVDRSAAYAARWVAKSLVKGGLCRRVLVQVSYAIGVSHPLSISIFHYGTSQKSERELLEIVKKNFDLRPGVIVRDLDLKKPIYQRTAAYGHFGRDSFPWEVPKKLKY

| Structure (SMILES) | IC50 (MAT2A homodimer) [nM] | IC50 [1] [nM] | IC50 (HCT116 MTAP−/−) [nM] | IC50 (HCT116 MTAP+/+) [nM] |
| --- | --- | --- | --- | --- |
| CN(C)Cc1cc(OCC(F)F)nc2c(-c3ccc(OC(F)F)cc3)c(=O)n(-c3ccc4nn(C)cc4c3)nc12 [Example 211, 6-(2,2-difluoroethoxy)-4-(4-(difluoromethoxy)phenyl)-8-((dimethylamino)methyl)-2-(2-methyl-2H-indazol-5-yl)pyrido[3,2-c]pyridazin-3(2H)-one] | < 100 | 100 to 1000 | 100 to 1000 | ≥ 1000 |
| Cn1cc2cc(-n3nc4ccc(SCC(F)(F)F)nc4c(-c4ccc(OC(F)F)cc4)c3=O)ccc2n1 [Example 165] | < 100 | < 100 | < 100 | 100 to 1000 |
| Cn1cc2cc(-n3nc4ccc(OCC(F)F)nc4c(-c4ccccc4)c3=O)ccc2n1 [Example 133] | < 100 | < 100 | 100 to 1000 | ≥ 1000 |
| CCOc1ccc2nn(-c3ccc4nn(C)cc4c3)c(=O)c(-c3ccc(C(F)(F)F)nc3)c2n1 [Example 127] | < 100 | < 100 | < 100 | ≥ 1000 |
| CCOc1ccc2nn(-c3ccc4nn(C)cc4c3)c(=O)c(-c3ccc(OC)cc3)c2n1 [Example 115] | < 100 | < 100 | < 100 | 100 to 1000 |
| CCOc1ccc2nn(-c3ccc4nn(C)cc4c3)c(=O)c(-c3ccc(OC(F)(F)F)nc3)c2n1 [Example 121] | < 100 | < 100 | < 100 | ≥ 1000 |
| Cn1cc2cc(-n3nc4ccc(OCC(F)F)nc4c(-c4ccc(OC(F)F)nc4)c3=O)ccc2n1 [Example 126] | < 100 | < 100 | < 100 | ≥ 1000 |
| CCOc1ccc2nn(-c3ccc4ncccc4c3)c(=O)c(-c3ccc(Cl)cc3)c2n1 [Example 168] | < 100 | < 100 | 100 to 1000 | ≥ 1000 |
| [2H]C([2H])([2H])n1cc2cc(-n3nc4ccc(NC([2H])([2H])C([2H])([2H])[2H])nc4c(-c4ccc(C(F)F)nc4)c3=O)ccc2n1 [Example 321, 4-(6-(difluoromethyl)pyridin-3-yl)-6-((ethyl-d5)amino)-2-(2-(methyl-d3)-2H-indazol-5-yl)pyrido[3,2-c]pyridazin-3(2H)-one] | < 100 | < 100 | < 100 | ≥ 1000 |
| Cn1cc2cc(-n3nc4ccc(OCC(F)F)nc4c(-c4ccc(Cl)cc4)c3=O)ccc2n1 [Example 124] | < 100 | < 100 | < 100 | 100 to 1000 |
| [2H]C([2H])([2H])C([2H])([2H])Nc1ccc2nn(-c3ccc4nn(C)cc4c3)c(=O)c(-c3ccc(C)nc3)c2n1 [Example 323] | < 100 | < 100 | < 100 | < 100 |
| CCOc1nc2c(-c3ccc(OC(F)F)cc3)c(=O)n(-c3ccc4nn(C)cc4c3)nc2cc1F [Example 195] | < 100 | < 100 | ≥ 1000 | ≥ 1000 |
| Cn1cc2cc(-n3nc4ccc(NCC5CC5)nc4c(-c4ccc(C5CC5)nc4)c3=O)ccc2n1 [Example 315] | < 100 | < 100 | < 100 | ≥ 1000 |
| O=c1c(-c2ccc(Cl)cc2)c2nc(OCC(F)F)ccc2nn1-c1ccc2ncsc2c1 [Example 143] | < 100 | < 100 | < 100 | ≥ 1000 |

Results, then the molecule that gave them:

| IC50 (MAT2A homodimer) [nM] | IC50 [1] [nM] | IC50 (HCT116 MTAP−/−) [nM] | IC50 (HCT116 MTAP+/+) [nM] | Structure (SMILES) |
| --- | --- | --- | --- | --- |
| < 100 | < 100 | 100 to 1000 | 100 to 1000 | O=c1c(-c2ccc(OC(F)F)cc2)c2nc(OCC(F)F)ccc2nn1-c1ccc2nnccc2c1 [Example 176] |
| < 100 | < 100 | < 100 | 100 to 1000 | Cn1cc2cc(-n3nc4ccc(OCC(F)(F)F)nc4c(-c4ccc(OC(F)F)cc4)c3=O)ccc2n1 [Example 123] |
| < 100 | < 100 | < 100 | 100 to 1000 | Cn1nc2ccc(-n3nc4ccc(OCC(F)F)nc4c(-c4ccc(OC(F)F)cc4)c3=O)cc2n1 [Example 182] |
| < 100 | 100 to 1000 | 100 to 1000 | ≥ 1000 | O=c1c(-c2ccc(OC(F)F)cc2)c2nc(OCC(F)F)ccc2nn1-c1ccncc1 [Example 188] |
| < 100 | < 100 | < 100 | 100 to 1000 | CCc1c2cc(-n3nc4ccc(OCC(F)F)nc4c(-c4ccc(OC(F)F)cc4)c3=O)ccc2nn1C [Example 208, 6-(2,2-difluoroethoxy)-4-(4-(difluoromethoxy)phenyl)-2-(3-ethyl-2-methyl-2H-indazol-5-yl)pyrido[3,2-c]pyridazin-3(2H)-one] |
| < 100 | < 100 | < 100 | 100 to 1000 | COc1ccc(-c2c(=O)n(-c3ccc4nn(C)cc4c3)nc3ccc(OCC(F)F)nc23)cc1 [Example 106] |
| < 100 | < 100 | < 100 | ≥ 1000 | COc1c2cc(-n3nc4ccc(OCC(F)F)nc4c(-c4ccc(OC(F)F)cc4)c3=O)ccc2nn1C [Example 171] |
| < 100 | < 100 | < 100 | 100 to 1000 | Cn1cc2cc(-n3nc4ccc(OCC(F)F)nc4c(-c4ccc(OC(F)F)cc4)c3=O)ccc2n1 [Example 125, 6-(2,2-difluoroethoxy)-4-(4-(difluoromethoxy)phenyl)-2-(2-methyl-2H-indazol-5-yl)pyrido[3,2-c]pyridazin-3(2H)-one] |

— patent US12077534B2, “Aza-heterobicyclic inhibitors of MAT2A and methods of use for treating cancer” (Les Laboratoires Servier SAS, priority 2018, dated 2024)
